Common to all, as to format: cell-based, cat
Assay [1] concerns the target T1, T1R1/T1R3 receptor (Felis catus, UniProt E3UMS2). Description: Activation of T1R1/T1R3 receptor by transmembrane compounds and nucleotide derivatives, conducted as in Examples 1, 2 and 5 (Example 7). From the text: Methods: HEK293 cells that stably express T1R3 and inducibly express T1R1 were exposed to nucleotide derivatives alone to activate the umami receptor. Activation of the T1R1/T1R3 receptor was detected by a change in intracellular calcium levels using a calcium sensitive fluorescent dye. Cells that express T1R3 but not T1R1 were used as a control. A FLIPR® Tetra or a FlexStation® 3 was used for data capture.
Methods: HEK293 cells that stably express T1R3 and inducibly express T1R1 were exposed to nucleotide derivatives alone or in combination with one or more amino acids and/or one or more nucleotides to activate the umami receptor. Activation of the T1R1/T1R3 receptor was detected by a change in intracellular calcium levels using a calcium sensitive fluorescent dye and/or a luminescent reporter system. Cells that express T1R3 but not T1R1 were used as a control. A FLIPR® Tetra or a FlexStation® 3 was used for data capture.
Methods: HEK293 cells that stably express T1R3 and inducibly express T1R1 were exposed to transmembrane compounds alone or in combination with one or more amino acids and/or one or more nucleotides to activate the umami receptor. Activation of the T1R1/T1R3 receptor was detected by a change in intracellular calcium levels using a calcium sensitive fluorescent dye. Cells that express T1R3 but not T1R1 were used as a control. A FLIPR® Tetra or a FlexStation® 3 was used for data capture.
In each experiment, serial dilutions of up to 10 mM of the transmembrane compound were added to the T1R1/T1R3-expressing cells.

The target in assay [2] is T1, T1R1/T1R3 receptor. Description: Agonist screening of transmembrane compounds on T1R1/T1R3 in HEK293 cells (Example 8). The settings on record: for T1R1/T1R3 agonist: transmembrane compound tested at 0.01, 0.1 and 1 mM, HEK293 cells expressing T1R1/T1R3, calcium readout. As for the experimental part:
Agonist Screening Method: HEK293 cells that stably express T1R3 and inducibly express T1R1 were exposed to a transmembrane compound. Activation of the T1R1/T1R3 receptor was detected by a change in intracellular calcium levels using a calcium sensitive fluorescent dye and/or a luminescent reporter system. […] A FLIPR® Tetra or a FlexStation® 3 was used for data capture.
Each transmembrane compound was tested at concentrations of 0.01 mM, 0.1 mM, and 1 mM. […] To generate the dose response curves, the transmembrane compound was tested at concentrations of between 0.0001 mM and 1.0 mM in the presence of GMP and Ala.

In assay [3] the target is T1, T1R1/T1R3 receptor. Description: PAM screening of transmembrane compounds with GMP and Ala on T1R1/T1R3 in HEK293 cells (Example 8). The conditions noted are these: for T1R1/T1R3 PAM: transmembrane compound at 0.01, 0.1 and 1 mM with GMP + Ala mixtures (T1-T4), PAM if response greater than sum of compound alone and GMP+Ala alone. From the text: PAM Screening Method: HEK293 cells that stably express T1R3 and inducibly express T1R1 were exposed to transmembrane compound alone or in combination with Ala and GMP to activate the umami receptor. Activation of the T1R1/T1R3 receptor was detected by a change in intracellular calcium levels using a calcium sensitive fluorescent dye and/or a luminescent reporter system. […] A FLIPR® Tetra or a FlexStation® 3 was used for data capture.
Dose response curves were generated for each transmembrane compound at concentrations of 0 (buffer only), 0.01, 0.1 and 1 mM, wherein each of the three concentrations of transmembrane compound was tested in combination with 0.03 mM GMP+100 mM Ala (T1); 0.6 mM GMP+10 mM Ala (T2); 0.1 mM GMP+60 mM Ala (T3) and 0.3 mM GMP+60 mM Ala (T4). The T4 mixture was also tested in a 2-fold dilution series (the T4(X) Concentration). In these experiments, the first test concentration was 2× (2 times) the T4 concentration. The subsequent test concentrations were 2-fold dilutions from that (1×, 0.5× etc.). This dilution series was tested with or without the addition of the test compound at a constant 0.3 mM concentration.
Activation of the umami receptor was also determined in the presence of 1 mM GMP+100 mM Ala to generate a “maximum” umami receptor activation level.

Data on 27 compounds can be found in US11185100B2 (priority 2014, dated 2021).

SMILES strings stand for the structures. Where a name gives a salt, the structure may show the parent alone.

As for `O=C1CC(=O)N(Cc2ccccc2)C(=O)N1Cc1ccccc1` [1,3-dibenzylpyrimidine-2,4,6(1H,3H,5H)-trione], in assay [1], the “Max resp ΔF/F +Alanine (20 mM)” value is on record as 0.2925 ΔF/F and the “Thres +Alanine (20 mM)” value turned out to be 0.1 mM. Also, in assay [1] (+IMP (0.2 mM)), the “Max resp % of Ala +IMP (0.2 mM)” value is listed as 35.7 % of Ala, the “Max resp ΔF/F +IMP (0.2 mM)” value is 0.2775 ΔF/F and the “Thres +IMP (0.2 mM)” value came to 0.1 mM. The “Max resp % of IMP +Alanine (20 mM)” value in assay [1] (hek293 cells) is 42.7 % of IMP. Besides, the result in assay [1] (modulation of T1R1/T1R3) was active. In assay [2], the “agonist profile assessment (activation of T1R1/T1R3 by the compound alone)” value is listed as “agonist activity”.

Take `O=C(CN1C(=O)C(=O)N(Cc2ccccc2)C1=O)c1ccc2c(c1)OCCCO2` [1-benzyl-3-(2-(3,4-dihydro-2H-benzo[b][1,4]dioxepin-7-yl)-2-oxoethyl)imidazolidine-2,4,5-trione]: the “PAM profile assessment (activation of T1R1/T1R3 in the presence of GMP and Alanine)” value (“PAM profile assessment” for short) in assay [3] was “PAM activity”.

Regarding `O=C(CN1C(=O)C(=O)N(Cc2ccccc2)C1=O)c1ccc(Cl)s1` [1-benzyl-3-(2-(5-chlorothiophen-2-yl)-2-oxoethyl)imidazolidine-2,4,5-trione], in assay [3], the “PAM profile assessment” value was “PAM activity”.

With `COC(=O)[C@H](CC(C)C)NCc1ccccc1.Cl` [Benzyl-L-leucine methyl ester hydrochloride], the “PAM profile assessment” value in assay [3] was “PAM activity”. Also, in assay [2], the “agonist profile assessment (activation of T1R1/T1R3 by the compound alone)” value is listed as “agonist”.

Regarding `O=C(CN1C(=O)C(=O)N(Cc2ccccc2)C1=O)c1ccccc1` [Formula 1, 1-benzyl-3-(2-oxo-2-phenylethyl)imidazolidine-2,4,5-trione], the “T1R1/T1R3 PAM” value in assay [3] was “No”. In addition, the T1R1/T1R3 agonist result in assay [2] is recorded as “No”.

With `O=C(CN1C(=O)C(=O)N(Cc2ccccc2)C1=O)c1ccc2c(c1)CCC2` [Formula 2, 1-benzyl-3-(2-(2,3-dihydro-1H-inden-5-yl)-2-oxoethyl)imidazolidine-2,4,5-trione], the “T1R1/T1R3 PAM” value in assay [3] is listed as “No”. For the same compound, in assay [2], the T1R1/T1R3 agonist result is listed as “No”.

For `O=C(CN1C(=O)C(=O)N(Cc2ccccc2)C1=O)c1ccc(Br)cc1` [Formula 3, 1-benzyl-3-(2-(4-bromophenyl)-2-oxoethyl)imidazolidine-2,4,5-trione], in assay [3], the “T1R1/T1R3 PAM” value is recorded as “No”. For the same compound, the T1R1/T1R3 agonist entry in assay [2] was “No”.

Turning to `O=C(CN1C(=O)C(=O)N(Cc2ccccc2)C1=O)c1ccc2c(c1)OCCO2` [Formula 4, 1-benzyl-3-(2-(2,3-dihydrobenzo[b][1,4]dioxin-6-yl)-2-oxoethyl)imidazolidine-2,4,5-trione], in assay [3], the “T1R1/T1R3 PAM” value is listed as “No”. Moreover, the T1R1/T1R3 agonist entry in assay [2] is “No”.

For the compound `COc1ccc(C(=O)CN2C(=O)C(=O)N(Cc3ccccc3)C2=O)c(OC)c1` [Formula 5, 1-benzyl-3-(2-(2,4-dimethoxyphenyl)-2-oxoethyl)imidazolidine-2,4,5-trione], the “T1R1/T1R3 PAM” value in assay [3] was “No”. In addition, the T1R1/T1R3 agonist entry in assay [2] is on record as “No”.

As for `O=C(CN1C(=O)C(=O)N(CCc2cccs2)C1=O)c1ccccc1` [Formula 6, 1-(2-oxo-2-phenylethyl)-3-(2-(thiophen-2-yl)ethyl)imidazolidine-2,4,5-trione], in assay [3], the “T1R1/T1R3 PAM” value is recorded as “No”. Further, in assay [2], the T1R1/T1R3 agonist result is “No”.

For `O=C(CN1C(=O)C(=O)N(CCc2cccs2)C1=O)c1ccc2c(c1)OCO2` [Formula 7, 1-(2-(benzo[d][1,3]dioxol-5-yl)-2-oxoethyl)-3-(2-(thiophen-2-yl)ethyl)imidazolidine-2,4,5-trione], the “T1R1/T1R3 PAM” value in assay [3] is on record as “No”. Also, in assay [2], the T1R1/T1R3 agonist result is given as “No”.

`O=C(CN1C(=O)C(=O)N(Cc2ccccc2)C1=O)c1ccc2c(c1)OCCCO2` [Formula 8, 1-benzyl-3-(2-(3,4-dihydro-2H-benzo[b][1,4]dioxepin-7-yl)-2-oxoethyl)imidazolidine-2,4,5-trione]: in assay [3], the “T1R1/T1R3 PAM” value was “Weak PAM”. Further, the T1R1/T1R3 agonist result in assay [2] was “No”.

In the case of `N#Cc1cccc(NC(=O)CN2C(=O)C(=O)N(Cc3ccccc3)C2=O)c1` [Formula 9, 2-(3-benzyl-2,4,5-trioxoimidazolidin-1-yl)-N-(3-cyanophenyl)acetamide], the “T1R1/T1R3 PAM” value in assay [3] was “No”. Also, the T1R1/T1R3 agonist result in assay [2] is “No”.

Turning to `COc1ccccc1C(=O)CN1C(=O)C(=O)N(Cc2cccs2)C1=O` [Formula 10, 1-(2-(2-methoxyphenyl)-2-oxoethyl)-3-(thiophen-2-ylmethyl)imidazolidine-2,4,5-trione], the “T1R1/T1R3 PAM” value in assay [3] is listed as “No”. Further, in assay [2], the T1R1/T1R3 agonist entry was “No”.

As for `O=C(CN1C(=O)C(=O)N(CCc2cccs2)C1=O)c1cccc2ccccc12` [Formula 11, 1-(2-(naphthalen-1-yl)-2-oxoethyl)-3-(2-(thiophen-2-yl)ethyl)imidazolidine-2,4,5-trione], the “T1R1/T1R3 PAM” value in assay [3] was “No”. For the same compound, in assay [2], the T1R1/T1R3 agonist entry was “No”.

Turning to `O=C(CN1C(=O)C(=O)N(Cc2ccccc2)C1=O)c1ccc(Cl)s1` [Formula 12, 1-benzyl-3-(2-(5-chlorothiophen-2-yl)-2-oxoethyl)imidazolidine-2,4,5-trione], the “T1R1/T1R3 PAM” value in assay [3] is “Weak PAM”. The T1R1/T1R3 agonist entry in assay [2] is “No”.

As to `O=C1C(=O)N(Cc2ccccc2)C(=S)N1Cc1ccccc1` [Formula 13, 1,3-dibenzyl-2-thioxoimidazolidine-4,5-dione], the “T1R1/T1R3 PAM” value in assay [3] is given as “No”. For the same compound, the T1R1/T1R3 agonist entry in assay [2] is on record as “No”.

For `CCCC(CCC)NC(=O)c1ccc2c(c1)OCO2` [Formula 14, N-(heptan-4-yl)benzo[d][1,3]dioxole-5-carboxamide], the “T1R1/T1R3 PAM” value in assay [3] is on record as “Yes”. Further, in assay [2], the T1R1/T1R3 agonist entry is given as “Yes”.

For the compound `COC(=O)[C@H](Cc1ccccc1)NCc1ccccc1` [Formula 15, N-Benzyl-L-phenylalanine methyl ester hydrochloride], the “T1R1/T1R3 PAM” value in assay [3] was “Yes”. The T1R1/T1R3 agonist entry in assay [2] is “Yes”.

Regarding `COC(=O)[C@@H](Cc1ccccc1)NCc1ccccc1.Cl` [Formula 16, N-Benzyl-D-Phenylalanine methyl ester hydrochloride], the “T1R1/T1R3 PAM” value in assay [3] is on record as “Yes”. In assay [2], the T1R1/T1R3 agonist entry is given as “Yes”.

As for `COC(=O)[C@H](CC(C)C)NCc1ccccc1.Cl` [Formula 18, Benzyl-L-leucine methyl ester hydrochloride], in assay [3], the “T1R1/T1R3 PAM” value is given as “Yes”. The T1R1/T1R3 agonist result in assay [2] is on record as “Yes”.

For `COC(=O)C(NCc1ccccc1)c1ccccc1` (stereo not shown) [Formula 19, Methyl-2-benzylamino-2-phenylacetate], the “T1R1/T1R3 PAM” value in assay [3] is reported as “Yes”. For the same compound, the T1R1/T1R3 agonist result in assay [2] is recorded as “Yes”.

For `Cl.N[C@@H](Cc1ccccc1)C(=O)OCc1ccccc1` [Formula 20, L-Phenylalanine benzyl ester hydrochloride], the “T1R1/T1R3 PAM” value in assay [3] was “Yes”. For the same compound, the T1R1/T1R3 agonist entry in assay [2] is “Yes”.

In the case of `N[C@@H](Cc1ccc(O)cc1)C(=O)OCc1ccccc1` [Formula 21, L-Tyrosine benzyl ester], in assay [3], the “T1R1/T1R3 PAM” value is given as “No”. Further, the T1R1/T1R3 agonist result in assay [2] is listed as “No”.

Consider `O=C(O)[C@H](Cc1ccc(O)cc1)NCc1ccccc1` [Formula 22, N-Benzyl-L-Tyrosine], for which, in assay [3], the “T1R1/T1R3 PAM” value was “No”. In addition, the T1R1/T1R3 agonist entry in assay [2] is “No”.

Take `Cc1ccc(CNC(Cc2ccccc2)C(=O)O)cc1` (stereo not shown) [Formula 23, 2-((4-methylbenzyl)amino)-3-phenylpropanoic acid]: in assay [3], the “T1R1/T1R3 PAM” value is on record as “No”. Also, the T1R1/T1R3 agonist result in assay [2] is on record as “No”.

As to `O=C1CC(=O)N(Cc2ccccc2)C(=O)N1Cc1ccccc1` [Formula 24, 1,3-dibenzylpyrimidine-2,4,6(1H,3H,5H)-trione], the “T1R1/T1R3 PAM” value in assay [3] is reported as “No”. The T1R1/T1R3 agonist result in assay [2] is on record as “Yes”.
